In patent publication US10669258B2, “3-sulfonyl-5-aminopyridine-2,4-diol APJ agonists” (BRISTOL-MYERS SQUIBB COMPANY, priority 2016, dated 2020):
Read-outs that look alike come from different tables or passages of the source.

Molecular target: T1, human APJ receptor (Homo sapiens, UniProt P35414)
T1 construct: expressed in transfected cells; host or cells: HEK293
T1 sequence (P35414 1-380): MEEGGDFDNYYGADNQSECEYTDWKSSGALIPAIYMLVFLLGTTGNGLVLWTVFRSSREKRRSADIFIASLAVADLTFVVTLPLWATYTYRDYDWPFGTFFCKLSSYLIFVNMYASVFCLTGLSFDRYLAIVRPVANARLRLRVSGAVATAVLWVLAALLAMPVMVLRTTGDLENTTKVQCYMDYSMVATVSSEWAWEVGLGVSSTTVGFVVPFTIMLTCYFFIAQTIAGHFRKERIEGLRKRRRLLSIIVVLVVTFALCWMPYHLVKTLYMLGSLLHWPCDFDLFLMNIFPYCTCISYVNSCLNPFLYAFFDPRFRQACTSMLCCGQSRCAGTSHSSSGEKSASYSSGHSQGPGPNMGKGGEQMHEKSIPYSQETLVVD
Assay: Intracellular cAMP accumulation assay (APJ hcAMP, HTRF)
Assay type: cell-based
Conditions: HEK293 cells stably expressing human APJ receptor, inhibition of forskolin-mediated cAMP production, read-out: hAPJ cAMP EC50 Potency range
In short: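 Inhibition of forskolin (2 μM)-driven cAMP, with […], measured by HTRF after 30 min room-temperature compound exposure of stably transfected HEK293 cells. cAMP read from a standard curve; variable-slope fit gives EC50, and maximal inhibition is normalised to (Pyr1)apelin-13 as 100%.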

Structure (SMILES)	EC50 (Table 1)	EC50 (Table 2)
CCCCc1nc(O)c(S(=O)(=O)c2ccc(-c3ccccc3C(=O)NC)cc2)c(O)c1N(C)c1ccccc1C [Example 206, 4′-((6-butyl-2,4-dihydroxy-5-(methyl(o-tolyl)amino)pyridin-3-yl)sulfonyl)-N-methyl-[1,1′-biphenyl]-2-carboxamide]	0.01 to 10 nM	–
CCN(c1ccccc1)c1c(-c2ccn(C)n2)nc(O)c(C(=O)N2CCC(c3ccc(F)cc3F)C2)c1O (stereo not shown) [Example 207, (3-(2,4-difluorophenyl)pyrrolidin-1-yl)(5-(ethyl(phenyl)amino)-2,4-dihydroxy-6-(1-methyl-1H-pyrazol-3-yl)pyridin-3-yl)methanone]	–	0.01 to 10 nM
CCCCc1nc(O)c(S(=O)(=O)c2ccc(-c3ccccc3C(=O)NC3CC3)cc2)c(O)c1N(C)c1ccccc1C [Example 208, 4′-((6-butyl-2,4-dihydroxy-5-(methyl(o-tolyl)amino)pyridin-3-yl)sulfonyl)-N-cyclopropyl-[1,1′-biphenyl]-2-carboxamide]	0.01 to 10 nM	–
CC(C)N(c1ccccc1)c1c(-c2ccn(C)n2)nc(O)c(C(=O)N2CCC(c3ccc(F)cc3F)C2)c1O (stereo not shown) [Example 209, (3-(2,4-difluorophenyl)pyrrolidin-1-yl)(2,4-dihydroxy-5-(isopropyl(phenyl)amino)-6-(1-methyl-1H-pyrazol-3-yl)pyridin-3-yl)methanone]	–	0.01 to 10 nM
CCN(c1cccc(C#N)c1)c1c(-c2ccn(C)n2)nc(O)c(S(=O)(=O)c2ccc(-c3ccccc3C(=O)N(C)C)cc2)c1O [Example 210, 4′-((5-((3-cyano-phenyl)(ethyl)amino)-2,4-dihydroxy-6-(1-methyl-1H-pyrazol-3-yl)pyridin-3-yl)sulfonyl)-N,N-dimethyl-[1,1′-biphenyl]-2-carboxamide]	0.01 to 10 nM	–
CCN(c1cccc(C#N)c1)c1c(-c2ccn(C)n2)nc(O)c(S(=O)(=O)c2ccc(-c3ccnc(F)c3C)cc2)c1O [Example 211, 3-(ethyl(5-((4-(2-fluoro-3-methylpyridin-4-yl)phenyl)sulfonyl)-4,6-dihydroxy-2-(1-methyl-1H-pyrazol-3-yl)pyridin-3-yl)amino)benzonitrile]	0.01 to 10 nM	–
CCN(c1cccc(C#N)c1)c1c(-c2ccn(C)n2)nc(O)c(S(=O)(=O)c2ccc(-c3ccncc3C)cc2)c1O [Example 212, 3-((4,6-dihydroxy-2-(1-methyl-1H-pyrazol-3-yl)-5-((4-(3-methylpyridin-4-yl)phenyl)sulfonyl)pyri-din-3-yl)(ethyl)amino)benzonitrile]	0.01 to 10 nM	–
CCN(c1cccc(C#N)c1)c1c(-c2ccn(C)n2)nc(O)c(S(=O)(=O)c2ccc(-c3ccc(F)nc3C)cc2)c1O [Example 213, 3-(ethyl(5-((4-(6-fluoro-2-methylpyridin-3-yl)phenyl)sulfonyl)-4,6-dihydroxy-2-(1-methyl-1H-pyrazol-3-yl)pyridin-3-yl)amino)benzonitrile]	0.01 to 10 nM	–
CCN(c1cccc(C#N)c1)c1c(-c2ccn(C)n2)nc(O)c(S(=O)(=O)c2ccc(-c3ccccc3C(=O)NC)cc2)c1O [Example 214, 4′-((5-((3-cyanophenyl)(ethyl)ami-no)-2,4-dihydroxy-6-(1-methyl-1H-pyrazol-3-yl)pyridin-3-yl)sulfonyl)-N-methyl-[1,1′-biphenyl]-2-carboxamide]	0.01 to 10 nM	–
CCN(c1cccc(C#N)c1)c1c(-c2ccn(C)n2)nc(O)c(S(=O)(=O)c2ccc(-c3cccc(F)c3C(N)=O)cc2)c1O [Example 215, 4′-((5-((3-cyanophenyl)(ethyl)ami-no)-2,4-dihydroxy-6-(1-methyl-1H-pyrazol-3-yl)pyridin-3-yl)sulfonyl)-3-fluoro-[1,1′-biphenyl]-2-carboxamide]	0.01 to 10 nM	–
CCN(c1cccc(C#N)c1)c1c(-c2ccn(C)n2)nc(O)c(S(=O)(=O)c2ccc(-c3ccccc3C(N)=O)cc2)c1O [Example 216, 4′-((5-((3-cyanophenyl)(ethyl)ami-no)-2,4-dihydroxy-6-(1-methyl-1H-pyrazol-3-yl)pyridin-3-yl)sulfonyl)-[1,1′-biphenyl]-2-carboxamide]	0.01 to 10 nM	–
CCN(c1cccc(C#N)c1)c1c(-c2ccn(C)n2)nc(O)c(S(=O)(=O)c2ccc(-c3cccnc3C)cc2)c1O [Example 217]	0.01 to 10 nM	–
CCN(c1cccc(C#N)c1)c1c(-c2ccn(C)n2)nc(O)c(S(=O)(=O)c2ccc(-c3ccccc3C(=O)NC3CC3)cc2)c1O [Example 218, 4′-((5-((3-cyanophenyl)(ethyl)ami-no)-2,4-dihydroxy-6-(1-methyl-1H-pyrazol-3-yl)pyridin-3-y)sulfonyl)-N-cyclopropyl-[1,1′-biphenyl]-2-carboxamide]	0.01 to 10 nM	–
